Literature values as cited in patent publication US20180148781A1, “Antioxidant Compounds For Cleave Formulations That Support Long Reads In Sequencing-By-Synthesis” (QIAGEN Waltham, Inc., priority 2016, published 2018).

Details: pH 7.4

fraction present in mono-anionic form as ascorbate: 99.95%
SMILES: O=C1O[C@H]([C@@H](O)CO)C(O)=C1O [Ascorbic Acid]
